Measurements taken from patent US6534447B1, “Herbicidal pyridine compounds” (BASF Aktiengesellschaft, priority 1999, dated 2003).

How the values were obtained:
Assay type in all cases: in vivo
[1] = test system: Abutilon theophrasti (ABUTH, velvetleaf); assay: Pre-emergence herbicidal evaluation; conditions: 3 weeks after treatment
Excerpt: (§1) The pre-emergence herbicidal activity of the compounds of the present invention is exemplified by the following test in which the seeds of a variety of monocotyledonous and dicotyledonous plants are seperately mixed with potting soil and planted on top of approximately one inch of soil in separate post. After planting, the pots are sprayed with the selected aqueous acetone solution. containing test compound in sufficient quantity to provide the equivalent of about 0.025 to 0.4 kg per hectare of test compound per pot. The treated pots are then placed on greenhouse benches, watered and cared for in accordance with conventional greenhouse procedures. From 3 weeks after treatment, the tests are terminated and each pot is examined and rated according to the rating system set forth below. [table] [table]

[2] = test system: Alopecurus myosuroides (ALOMY, black grass); assay: Pre-emergence herbicidal evaluation; conditions: 3 weeks after treatment
Excerpt: as §1

[3] = test system: Echinochloa grus galli (ECHCG, barnyard grass); assay: Pre-emergence herbicidal evaluation; conditions: 3 weeks after treatment
Excerpt: as §1

[4] = test system: Galium aparine (GALAP, cleaver); assay: Pre-emergence herbicidal evaluation; conditions: 3 weeks after treatment
Excerpt: as §1

[5] = test system: Ipomoea hederacea (IPOHE, morning glory); assay: Pre-emergence herbicidal evaluation; conditions: 3 weeks after treatment
Excerpt: as §1

[6] = test system: Matricaria inodora (MATIN, mayweed); assay: Pre-emergence herbicidal evaluation; conditions: 3 weeks after treatment
Excerpt: as §1

[7] = test system: Setaria viridis (SETVI, green foxtail); assay: Pre-emergence herbicidal evaluation; conditions: 3 weeks after treatment
Excerpt: as §1

[8] = test system: Stellaria media (STEME, chickweed); assay: Pre-emergence herbicidal evaluation; conditions: 3 weeks after treatment
Excerpt: as §1

[9] = test system: Glycine max (GLXMA, soyabeans); assay: Pre-emergence herbicidal evaluation (crop); conditions: 3 weeks after treatment
Excerpt: as §1

[10] = test system: Triticum aestivum (TRZAW, winter wheat); assay: Pre-emergence herbicidal evaluation (crop); conditions: 3 weeks after treatment
Excerpt: as §1

Zea mays (ZEAMX, maize) = assay: Pre-emergence herbicidal evaluation (crop); conditions: 3 weeks after treatment
Excerpt: as §1

[11] = test system: Abutilon theophrasti (ABUTH, velvetleaf); assay: Post-emergence herbicidal evaluation; conditions: 3 weeks after treatment
Protocol: (§2) These acetone solutions are diluted with water and the resulting formulations applied at dosage levels equivalent of about 0.025 to 0.4 kg per hectare of test compound per pot. After spraying the plants are placed on greenhouse benches and are cared for in the usual manner, commensurate with conventional greenhouse practices. From 3 weeks after treatment, the seedling plants are examined and rated according to the rating system provided above. A rating 0 indicates growth as untreated control, a rating 9 indicates death.

[12] = test system: Alopecurus myosuroides (ALOMY, black grass); assay: Post-emergence herbicidal evaluation; conditions: 3 weeks after treatment
Protocol: as §2

[13] = test system: Dolium multiflorum (LOLMU, ryegrass); assay: Post-emergence herbicidal evaluation; conditions: rate 0.100 kg/ha, 3 weeks after treatment
Protocol: as §2

[14] = test system: Echinochloa grus galli (ECHCG, barnyard grass); assay: Post-emergence herbicidal evaluation; conditions: 3 weeks after treatment
Protocol: as §2

[15] = test system: Galium aparine (GALAP, cleaver); assay: Post-emergence herbicidal evaluation; conditions: 3 weeks after treatment
Protocol: as §2

[16] = test system: Ipomoea hederacea (IPOHE, morning glory); assay: Post-emergence herbicidal evaluation; conditions: 3 weeks after treatment
Protocol: as §2

[17] = test system: Matricaria inodora (MATIN, mayweed); assay: Post-emergence herbicidal evaluation; conditions: 3 weeks after treatment
Protocol: as §2

[18] = test system: Setaria viridis (SETVI, green foxtail); assay: Post-emergence herbicidal evaluation; conditions: 3 weeks after treatment
Protocol: as §2

[19] = test system: Stellaria media (STEME, chickweed); assay: Post-emergence herbicidal evaluation; conditions: 3 weeks after treatment
Protocol: as §2

## Cc1cc(OCC=C(Cl)SC(F)(F)F)nc(Oc2cc(C(F)(F)F)nn2C)c1 [Example 5]
[1]; rate 0.025 kg/ha
  ABUTH rating: 5 (5 - Definite injury)
[1]; rate 0.100 kg/ha
  ABUTH rating: 8 (8 - Approaching complete kill)
[1]; rate 0.400 kg/ha
  ABUTH rating: 8 (8 - Approaching complete kill)
[2]; rate 0.025 kg/ha
  ALOMY rating: 7 (7 - Good herbicidal effect)
[2]; rate 0.100 kg/ha
  ALOMY rating: 8 (8 - Approaching complete kill)
[2]; rate 0.400 kg/ha
  ALOMY rating: 8 (8 - Approaching complete kill)
[3]; rate 0.025 kg/ha
  ECHCG rating: 6 (6 - Herbicidal effect)
[3]; rate 0.100 kg/ha
  ECHCG rating: 8 (8 - Approaching complete kill)
[3]; rate 0.400 kg/ha
  ECHCG rating: 9 (9 - Complete kill)
[4]; rate 0.025 kg/ha
  GALAP rating: 5 (5 - Definite injury)
[4]; rate 0.100 kg/ha
  GALAP rating: 7 (7 - Good herbicidal effect)
[4]; rate 0.400 kg/ha
  GALAP rating: 7 (7 - Good herbicidal effect)
[5]; rate 0.025 kg/ha
  IPOHE rating: 8 (8 - Approaching complete kill)
[5]; rate 0.100 kg/ha
  IPOHE rating: 9 (9 - Complete kill)
[5]; rate 0.400 kg/ha
  IPOHE rating: 9 (9 - Complete kill)
[6]; rate 0.025 kg/ha
  MATIN rating: 8 (8 - Approaching complete kill)
[6]; rate 0.100 kg/ha
  MATIN rating: 8 (8 - Approaching complete kill)
[6]; rate 0.400 kg/ha
  MATIN rating: 9 (9 - Complete kill)
[7]; rate 0.025 kg/ha
  SETVI rating: 8 (8 - Approaching complete kill)
[7]; rate 0.100 kg/ha
  SETVI rating: 9 (9 - Complete kill)
[7]; rate 0.400 kg/ha
  SETVI rating: 9 (9 - Complete kill)
[8]; rate 0.025 kg/ha
  STEME rating: 9 (9 - Complete kill)
[8]; rate 0.100 kg/ha
  STEME rating: 9 (9 - Complete kill)
[8]; rate 0.400 kg/ha
  STEME rating: 9 (9 - Complete kill)
[9]; rate 0.025 kg/ha
  GLXMA rating: 2 (2 - Slight effect)
[9]; rate 0.100 kg/ha
  GLXMA rating: 2 (2 - Slight effect)
[9]; rate 0.400 kg/ha
  GLXMA rating: 3 (3 - Moderate effect)
[10]; rate 0.025 kg/ha
  TRZAW rating: 2 (2 - Slight effect)
[10]; rate 0.100 kg/ha
  TRZAW rating: 3 (3 - Moderate effect)
[10]; rate 0.400 kg/ha
  TRZAW rating: 6 (6 - Herbicidal effect)
Zea mays (ZEAMX, maize); rate 0.025 kg/ha
  ZEAMX rating: 2 (2 - Slight effect)
Zea mays (ZEAMX, maize); rate 0.100 kg/ha
  ZEAMX rating: 3 (3 - Moderate effect)
Zea mays (ZEAMX, maize); rate 0.400 kg/ha
  ZEAMX rating: 4 (4 - Injury)
[11]; rate 0.025 kg/ha
  ABUTH rating: 7 (7 - Good herbicidal effect)
[11]; rate 0.100 kg/ha
  ABUTH rating: 8 (8 - Approaching complete kill)
[11]; rate 0.400 kg/ha
  ABUTH rating: 8 (8 - Approaching complete kill)
[12]; rate 0.025 kg/ha
  ALOMY rating: 6 (6 - Herbicidal effect)
[12]; rate 0.100 kg/ha
  ALOMY rating: 7 (7 - Good herbicidal effect)
[12]; rate 0.400 kg/ha
  ALOMY rating: 8 (8 - Approaching complete kill)
[13]
  LOLMU rating: 8 (8 - Approaching complete kill)
[14]; rate 0.025 kg/ha
  ECHCG rating: 7 (7 - Good herbicidal effect)
[14]; rate 0.100 kg/ha
  ECHCG rating: 8 (8 - Approaching complete kill)
[14]; rate 0.400 kg/ha
  ECHCG rating: 8 (8 - Approaching complete kill)
[15]; rate 0.025 kg/ha
  GALAP rating: 7 (7 - Good herbicidal effect)
[15]; rate 0.100 kg/ha
  GALAP rating: 8 (8 - Approaching complete kill)
[15]; rate 0.400 kg/ha
  GALAP rating: 8 (8 - Approaching complete kill)
[16]; rate 0.025 kg/ha
  IPOHE rating: 9 (9 - Complete kill)
[16]; rate 0.100 kg/ha
  IPOHE rating: 9 (9 - Complete kill)
[16]; rate 0.400 kg/ha
  IPOHE rating: 9 (9 - Complete kill)
[17]; rate 0.025 kg/ha
  MATIN rating: 6 (6 - Herbicidal effect)
[17]; rate 0.100 kg/ha
  MATIN rating: 7 (7 - Good herbicidal effect)
[17]; rate 0.400 kg/ha
  MATIN rating: 7 (7 - Good herbicidal effect)
[18]; rate 0.025 kg/ha
  SETVI rating: 9 (9 - Complete kill)
[18]; rate 0.100 kg/ha
  SETVI rating: 9 (9 - Complete kill)
[18]; rate 0.400 kg/ha
  SETVI rating: 9 (9 - Complete kill)
[19]; rate 0.025 kg/ha
  STEME rating: 4 (4 - Injury)
[19]; rate 0.100 kg/ha
  STEME rating: 5 (5 - Definite injury)
[19]; rate 0.400 kg/ha
  STEME rating: 7 (7 - Good herbicidal effect)
